In ChEMBL document CHEMBL1139052, “Synthesis of a novel inhibitor against MRSA and VRE: preparation from zerumbone ring opening material showing histidine-kinase inhibition” (Bioorg Med Chem Lett, 2007):
In brackets after ≈: the same amount, converted by molar mass. Several values for one entry are separate records, joined by “and”; a condition that tells them apart may be missing. Identical values can stand only once.

Key:
[1] = target: T1, Sensor histidine kinase WalK (Bacillus subtilis (strain 168), UniProt Q45614); test: Inhibition of Bacillus subtilis histidine kinase YycG
T1 sequence (Q45614 whole entry): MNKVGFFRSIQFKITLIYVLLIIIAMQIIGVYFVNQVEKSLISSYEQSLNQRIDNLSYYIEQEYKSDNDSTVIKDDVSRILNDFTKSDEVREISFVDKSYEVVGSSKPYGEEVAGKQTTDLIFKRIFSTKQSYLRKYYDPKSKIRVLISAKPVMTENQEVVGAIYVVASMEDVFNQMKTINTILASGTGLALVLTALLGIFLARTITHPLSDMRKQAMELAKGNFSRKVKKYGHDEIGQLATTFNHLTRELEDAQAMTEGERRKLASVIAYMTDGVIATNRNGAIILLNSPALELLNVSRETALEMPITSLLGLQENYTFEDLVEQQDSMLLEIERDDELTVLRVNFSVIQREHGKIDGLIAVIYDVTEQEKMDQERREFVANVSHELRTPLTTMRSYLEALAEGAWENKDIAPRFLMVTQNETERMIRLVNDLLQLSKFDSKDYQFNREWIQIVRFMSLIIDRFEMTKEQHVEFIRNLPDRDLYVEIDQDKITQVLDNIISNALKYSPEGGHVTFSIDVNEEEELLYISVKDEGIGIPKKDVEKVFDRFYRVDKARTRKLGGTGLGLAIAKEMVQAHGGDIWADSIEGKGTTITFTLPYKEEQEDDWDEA

[2] = test system: Staphylococcus aureus; test: Antibacterial activity against methicillin-resistant staphylococcus aureus 870307 after 18 hrs by broth microdilution method; type: functional
[3] = test system: Enterococcus faecalis; test: Antibacterial activity against vancomycin-resistant Enterococcus faecalis NCTC-12201 after 18 hrs by broth microdilution method; type: functional

SMILES	IC50 [1]	MIC [2]	MIC [3]
COC(=O)[C@H](CC(N)=O)NC(=O)/C=C/C(C)(C)C/C=C(\C)CC/C=C(\C)Br	1130 µM	> 100 µg/mL	> 100 µg/mL
C/C(Br)=C\CC/C(C)=C/CC(C)(C)/C=C/C(=O)N[C@@H](Cc1ccc(O)cc1)C(=O)O	< 523 µM	> 100 µg/mL	> 100 µg/mL
COC(=O)[C@H](Cc1ccccc1)NC(=O)/C=C/C(C)(C)C/C=C(\C)CC/C=C(\C)Br	> 1050 µM	> 100 µg/mL	> 100 µg/mL
C/C(Br)=C\CC/C(C)=C/CC(C)(C)/C=C/C(=O)N1CCCCC1	> 1310 µM	> 100 µg/mL	> 100 µg/mL
CC[C@H](C)[C@H](NC(=O)/C=C/C(C)(C)C/C=C(\C)CC/C=C(\C)Br)C(=O)O	> 1170 µM	> 100 µg/mL	> 100 µg/mL
COC(=O)[C@H](Cc1ccc(O)cc1)NC(=O)/C=C/C(C)(C)C/C=C(\C)CC/C=C(\C)Br	> 1020 µM	> 100 µg/mL	> 100 µg/mL
C/C(Br)=C\CC/C(C)=C/CC(C)(C)/C=C/C(=O)N[C@@H](Cc1c[nH]c2ccccc12)C(=O)O	43.9 µM	100 µg/mL (≈ 199 µM)	50 µg/mL (≈ 99.7 µM)
COC(=O)/C=C/C(C)(C)C/C=C(\C)CC/C=C(\C)Br	> 1520 µM	> 100 µg/mL	> 100 µg/mL
COC(=O)[C@H](C)NC(=O)/C=C/C(C)(C)C/C=C(\C)CC/C=C(\C)Br	> 1250 µM	> 100 µg/mL	> 100 µg/mL
COC(=O)[C@@H](NC(=O)/C=C/C(C)(C)C/C=C(\C)CC/C=C(\C)Br)C(C)C	> 1170 µM	> 100 µg/mL	> 100 µg/mL
C/C(Br)=C\CC/C(C)=C/CC(C)(C)/C=C/C(=O)N[C@@H](Cc1ccccc1)C(=O)O	< 541 µM	> 100 µg/mL	> 100 µg/mL
CCCCCCCCOC(=O)/C=C/C(C)(C)C/C=C(\C)CC/C=C(\C)Br	> 1170 µM	> 100 µg/mL	> 100 µg/mL
C/C(Br)=C\CC/C(C)=C/CC(C)(C)/C=C/C(=O)N[C@@H](CC(N)=O)C(=O)O	< 582 µM	> 100 µg/mL	> 100 µg/mL
C/C1=C\CC(C)(C)/C=C/C(=O)/C(C)=C/CC1 [ZERUMBONE]	> 2290 µM	> 100 µg/mL	> 100 µg/mL
C/C(Br)=C\CC/C(C)=C/CC(C)(C)/C=C/C(=O)NCC(=O)O	< 671 µM	> 100 µg/mL	> 100 µg/mL
C/C(Br)=C\CC/C(C)=C/CC(C)(C)/C=C/C(=O)N[C@@H](CC(=O)O)C(=O)O	< 581 µM	> 100 µg/mL	> 100 µg/mL
C/C(Br)=C\CC/C(C)=C/CC(C)(C)/C=C/C(=O)N[C@@H](CO)C(=O)O	< 621 µM	> 100 µg/mL	> 100 µg/mL
C/C(Br)=C\CC/C(C)=C/CC(C)(C)/C=C/C(=O)N[C@@H](C)C(=O)O	< 647 µM	> 100 µg/mL	> 100 µg/mL
C/C(Br)=C\CC/C(C)=C/CC(C)(C)/C=C/C(=O)N[C@@H](CCC(=O)O)C(=O)O	< 563 µM	> 100 µg/mL	> 100 µg/mL
CCCCCCCCN(CCCCCCCC)C(=O)/C=C/C(C)(C)C/C=C(\C)CC/C=C(\C)Br	> 928 µM	> 100 µg/mL	> 100 µg/mL
C/C(Br)=C\CC/C(C)=C/CC(C)(C)/C=C/C(=O)N[C@@H](CC(C)C)C(=O)O	> 1170 µM	> 100 µg/mL	> 100 µg/mL

SMILES	IC50 [1]	MIC [2]	MIC [3]
CCCCN(CCCC)C(=O)/C=C/C(C)(C)C/C=C(\C)CC/C=C(\C)Br	> 1170 µM	> 100 µg/mL	> 100 µg/mL
C/C(Br)=C\CC/C(C)=C/CC(C)(C)/C=C/C(=O)O	63.4 µM and 63.5 µM	> 100 µg/mL	> 100 µg/mL
COC(=O)[C@@H](NC(=O)/C=C/C(C)(C)C/C=C(\C)CC/C=C(\C)Br)[C@@H](C)O	> 1160 µM	> 100 µg/mL	> 100 µg/mL
C/C(Br)=C\CC/C(C)=C/CC(C)(C)/C=C/C(=O)N[C@H](C(=O)O)[C@@H](C)O	> 1200 µM	> 100 µg/mL	> 100 µg/mL
C/C(Br)=C\CC/C(C)=C/CC(C)(C)/C=C/C(=O)N[C@@H](Cc1cnc[nH]1)C(=O)O	< 553 µM	> 100 µg/mL	> 100 µg/mL
COC(=O)[C@H](Cc1c[nH]c2ccccc12)NC(=O)/C=C/C(C)(C)C/C=C(\C)CC/C=C(\C)Br	> 970 µM	> 100 µg/mL	> 100 µg/mL
COC(=O)[C@H](CC(=O)O)NC(=O)/C=C/C(C)(C)C/C=C(\C)CC/C=C(\C)Br	> 1130 µM	> 100 µg/mL	> 100 µg/mL
C/C(Br)=C\CC/C(C)=C/CC(C)(C)/C=C/C(=O)N1CCC[C@H]1C(=O)O	< 606 µM	> 100 µg/mL	> 100 µg/mL
COC(=O)[C@H](CCC(=O)O)NC(=O)/C=C/C(C)(C)C/C=C(\C)CC/C=C(\C)Br	> 1090 µM	> 100 µg/mL	> 100 µg/mL
COC(=O)[C@H](CC(C)C)NC(=O)/C=C/C(C)(C)C/C=C(\C)CC/C=C(\C)Br	> 1130 µM	> 100 µg/mL	> 100 µg/mL
C/C(Br)=C\CC/C(C)=C/CC(C)(C)/C=C/C(=O)N[C@@H](CCC(N)=O)C(=O)O	< 564 µM	> 100 µg/mL	> 100 µg/mL
COC(=O)CNC(=O)/C=C/C(C)(C)C/C=C(\C)CC/C=C(\C)Br	> 1290 µM	> 100 µg/mL	> 100 µg/mL
CSCC[C@H](NC(=O)/C=C/C(C)(C)C/C=C(\C)CC/C=C(\C)Br)C(=O)O	< 560 µM	> 100 µg/mL	> 100 µg/mL
C/C(Br)=C\CC/C(C)=C/CC(C)(C)/C=C/CO	> 1660 µM	> 100 µg/mL	> 100 µg/mL
COC(=O)[C@@H]1CCCN1C(=O)/C=C/C(C)(C)C/C=C(\C)CC/C=C(\C)Br	< 586 µM	> 100 µg/mL	> 100 µg/mL
COC(=O)[C@H](CO)NC(=O)/C=C/C(C)(C)C/C=C(\C)CC/C=C(\C)Br	< 600 µM	> 100 µg/mL	> 100 µg/mL
COC(=O)[C@H](Cc1cnc[nH]1)NC(=O)/C=C/C(C)(C)C/C=C(\C)CC/C=C(\C)Br	> 1070 µM	> 100 µg/mL	> 100 µg/mL
CC[C@H](C)[C@H](NC(=O)/C=C/C(C)(C)C/C=C(\C)CC/C=C(\C)Br)C(=O)OC	> 1130 µM	> 100 µg/mL	> 100 µg/mL
C/C(Br)=C\CC/C(C)=C/CC(C)(C)/C=C/C(=O)N[C@H](C(=O)O)C(C)C	< 603 µM	> 100 µg/mL	> 100 µg/mL
COC(=O)[C@H](CCC(N)=O)NC(=O)/C=C/C(C)(C)C/C=C(\C)CC/C=C(\C)Br	1090 µM	> 100 µg/mL	> 100 µg/mL
COC(=O)[C@H](CCSC)NC(=O)/C=C/C(C)(C)C/C=C(\C)CC/C=C(\C)Br	> 1090 µM	> 100 µg/mL	> 100 µg/mL
